Results published in patent publication US10441663B2, “Methods for treating cancer” (Bicycle Therapeutics Limited, priority 2016, dated 2019).
*1 amine or outer side, *2 acyl side, *3 side chain or, on linkers, in order; H or OH if unused. Where a SMILES comes first, the peptide text is derived from it. Bridges are numbered along the chain shown (N, C = ends). [ ]: non-standard residue; d: D form. The star is where a group is joined. X1 = COc1cc2cc(c1Cl)N(C)C(=O)C[C@H](OC(=O)[C@H](C)N(C)C(=O)CCSSC(C)CCC(=O)*)[C@]1(C)O[C@H]1[C@H](C)[C@@H]1C[C@@](O)(NC(=O)O1)[C@H](OC)/C=C/C=C(\C)C2; 1Nal = N[C@@H](Cc1cccc2ccccc12)C(=O)O; TBMB = c1c(C[*:1])cc(C[*:3])cc1C[*:2]; Tle = CC(C)(C)[C@H](N)C(=O)O; βAla = NCCC(=O)O; Sar = CNCC(=O)O

Legend:
[1] = system: HCC1806 xenograft; assay: In vivo efficacy of BT1718 in HCC1806 xenograft; parameters: species or system Mus Musculus; key to Best response at 10 mg/kg: CR complete response; PR partial response
Experimental: (§1) The objective of this study was to evaluate the in vivo anti-tumor efficacy of BT1718in treatment of HT1080, NCI-H292, NCI-H1975, MDA-MB-231, HCC1806, RPMI2650, HCT-15, HT-29 and SNU-16 xenograft in BALB/c nude mice.
(§2) The HT1080, NCI-H292, NCI-H1975, MDA-MB-231, HCC1806, RPMI2650, HCT-15, HT-29 and SNU-16 tumor cells were maintained in vitro as a monolayer culture in medium supplemented with 10% heat inactivated fetal bovine serum at 37° C. in an […]. The tumor cells will be routinely subcultured twice weekly by trypsin-EDTA treatment. The cells growing in an exponential growth phase will be harvested and counted for tumor inoculation.
(§3) Mouse was inoculated subcutaneously at the right flank with tumor cells for tumor development. The animals were randomized and treatment was started when the average tumor reaches certain volume for the efficacy study, the inoculating cell amounts and starting tumor size were shown as below in Table 9. The test article administration and the animal numbers in each group were shown in the experimental design in Table 10.
(§4) All the procedures related to animal handling, care and the treatment in the study were performed according to the guidelines of the Association for Assessment and Accreditation of Laboratory Animal Care (AAALAC). At the time of routine monitoring, the animals were daily checked for any effects of tumor growth and treatments on normal behavior such as mobility, food and water consumption (by looking only), body weight gain/loss (body weights were measured every day), eye/hair matting and any other abnormal effect as stated in the protocol. Death and observed clinical signs were recorded on the basis of the numbers of animals within each subset.
(§5) The major endpoint was to see if the tumor growth could be delayed or mice could be cured. Tumor size was measured three times weekly in two dimensions using a caliper, and the volume was expressed in mm^3 using the formula: V=0.5 a×b^2 where a and b are the long and short diameters of the tumor, respectively. The tumor size was then used for calculations of T/C value. The T/C value (in percent) is an indication of antitumor effectiveness; T and C are the mean volumes of the treated and control groups, respectively, on a given day.
(§6) TGI was calculated for each group using the formula: TGI (%)=[1−(Ti−T0)/(Vi−V0)]×100; Ti is the average tumor volume of a treatment group on a given day, T0 is the average tumor volume of the treatment group on the day of treatment start, Vi is the average tumor volume of the vehicle control group on the same day with Ti, and V0 is the average tumor volume of the vehicle group on the day of treatment start.
(§7) Summary statistics, including mean and the standard error of the mean (SEM), are provided for the tumor volume of each group at each time point.
(§8) Statistical analysis of difference in tumor volume among the groups was conducted on the data obtained at the best therapeutic time point after the final dose.
(§9) A one-way ANOVA was performed to compare tumor volume among groups, and when a significant F-statistics (a ratio of treatment variance to the error variance) was obtained, comparisons between groups were carried out with Games-Howell test. All data were analyzed using Prism. P<0.05 was considered to be statistically significant.

[2] = system: NCI-H1975 xenograft; assay: In vivo efficacy of BT1718 in NCI-H1975 xenograft; parameters: species or system Mus Musculus; key to Best response at 10 mg/kg: CR complete response; PR partial response
Experimental: as §1, §2, §3, §4, §5, §6, §7, §8, §9

COc1cc2cc(c1Cl)N(C)C(=O)C[C@H](OC(=O)[C@H](C)N(C)C(=O)CCSSC(C)CCC(=O)NCCC(=O)N(C)CC(=O)N(C)CC(=O)N(C)CC(=O)N(C)CC(=O)N(C)CC(=O)N(C)CC(=O)N(C)CC(=O)N(C)CC(=O)N(C)CC(=O)N(C)CC(=O)N[C@@H](C)C(=O)N[C@H]1CSCc3cc4cc(c3)CSC[C@H](NC(=O)[C@@H](C)NC(=O)[C@H](Cc3cccc5ccccc35)NC(=O)[C@H](CCC(=O)O)NC(=O)[C@H](CC(N)=O)NC(=O)[C@@H](C)NC1=O)C(=O)N[C@@H](CCC(=O)O)C(=O)N[C@@H](CC(=O)O)C(=O)N[C@@H](Cc1ccccc1)C(=O)N[C@@H](Cc1ccc(O)cc1)C(=O)N[C@@H](CC(=O)O)C(=O)N[C@@H](C(C)(C)C)C(=O)N[C@H](C(N)=O)CSC4)[C@]1(C)O[C@H]1[C@H](C)[C@@H]1C[C@@](O)(NC(=O)O1)[C@H](OC)/C=C/C=C(\C)C2 (some centres unmarked) [BT1718] ({X1-βAla}-[Sar][Sar][Sar][Sar][Sar][Sar][Sar][Sar][Sar][Sar]AC[dA]NE[1Nal][dA]CEDFYD[Tle]C-NH2; linker 12-18-25 via TBMB (inferred))
Body Weight ([1]; 1 mpk biw, day 0): 22.5 ± 0.7 g | Tumor Volume ([1]; 1 mpk biw, day 0): 188 ± 23 mm^3 | Body Weight ([1]; 1 mpk biw, day 2): 22.8 ± 0.7 g | Tumor Volume ([1]; 1 mpk biw, day 2): 265 ± 53 mm^3 | Body Weight ([1]; 1 mpk biw, day 4): 23.6 ± 0.6 g | Tumor Volume ([1]; 1 mpk biw, day 4): 428 ± 44 mm^3 | Body Weight ([1]; 1 mpk biw, day 7): 24.2 ± 0.5 g | Tumor Volume ([1]; 1 mpk biw, day 7): 660 ± 85 mm^3 | Body Weight ([1]; 1 mpk biw, day 9): 24.0 ± 0.5 g | Tumor Volume ([1]; 1 mpk biw, day 9): 793 ± 122 mm^3 | Body Weight ([1]; 1 mpk biw, day 11): 24.3 ± 0.6 g | Tumor Volume ([1]; 1 mpk biw, day 11): 882 ± 118 mm^3 | Body Weight ([1]; 1 mpk biw, day 14): 24.8 ± 0.4 g | Tumor Volume ([1]; 1 mpk biw, day 14): 1169 ± 137 mm^3 | re-growth during dosing suspension ([1]; 2 months dosing suspension period): no re-growth | Body Weight ([1]; 3 mpk biw, day 0): 22.6 ± 1.0 g | Tumor Volume ([1]; 3 mpk biw, day 0): 190 ± 17 mm^3 | Body Weight ([1]; 3 mpk biw, day 2): 23.2 ± 0.9 g | Tumor Volume ([1]; 3 mpk biw, day 2): 259 ± 34 mm^3 | Body Weight ([1]; 3 mpk biw, day 4): 22.6 ± 1.0 g | Tumor Volume ([1]; 3 mpk biw, day 4): 296 ± 41 mm^3 | Body Weight ([1]; 3 mpk biw, day 7): 22.8 ± 1.4 g | Tumor Volume ([1]; 3 mpk biw, day 7): 276 ± 77 mm^3 | Body Weight ([1]; 3 mpk biw, day 9): 22.6 ± 1.6 g | Tumor Volume ([1]; 3 mpk biw, day 9): 323 ± 116 mm^3 | Body Weight ([1]; 3 mpk biw, day 11): 23.2 ± 1.2 g | Tumor Volume ([1]; 3 mpk biw, day 11): 392 ± 126 mm^3 | Body Weight ([1]; 3 mpk biw, day 14): 23.5 ± 1.1 g | Tumor Volume ([1]; 3 mpk biw, day 14): 527 ± 158 mm^3 | Body Weight ([1]; 10 mpk biw, day 0): 23.1 ± 0.6 g | Tumor Volume ([1]; 10 mpk biw, day 0): 186 ± 30 mm^3 | Body Weight ([1]; 10 mpk biw, day 2): 22.2 ± 1.1 g | Tumor Volume ([1]; 10 mpk biw, day 2): 221 ± 35 mm^3 | Body Weight ([1]; 10 mpk biw, day 4): 23.2 ± 0.9 g | Tumor Volume ([1]; 10 mpk biw, day 4): 185 ± 20 mm^3 | Body Weight ([1]; 10 mpk biw, day 7): 23.4 ± 0.8 g | Tumor Volume ([1]; 10 mpk biw, day 7): 142 ± 9 mm^3 | Body Weight ([1]; 10 mpk biw, day 9): 22.9 ± 1.0 g | Tumor Volume ([1]; 10 mpk biw, day 9): 92 ± 2 mm^3 | Body Weight ([1]; 10 mpk biw, day 11): 22.5 ± 1.2 g | Tumor Volume ([1]; 10 mpk biw, day 11): 84 ± 6 mm^3 | Body Weight ([1]; 10 mpk biw, day 14): 23.8 ± 0.7 g | Tumor Volume ([1]; 10 mpk biw, day 14): 67 ± 11 mm^3 | TGI ([1]; HCC1806, 1 mpk, biw, day 14): 8.6% | Tumor Volume ([1]; HCC1806, 1 mpk, biw, day 14): 1169 ± 137 mm^3 | TGI ([1]; HCC1806, 3 mpk, biw, day 14): 68.6% | Tumor Volume ([1]; HCC1806, 3 mpk, biw, day 14): 527 ± 158 mm^3 | TGI ([1]; HCC1806, 10 mpk, biw, day 14): 111.1% | Tumor Volume ([1]; HCC1806, 10 mpk, biw, day 14): 67 ± 11 mm^3 | Best response at 10 mg/kg ([1]; HCC-1806, 10 mg/kg): CR | Minimally Effective Dose IV BIW ([1]; HCC-1806, dose leading to tumor-stasis): <10 mg/kg | tumor volume after regression ([1]; after 2-3 weeks 10 mg/kg biw): below 50 mm3 | Body Weight ([2]; 1 mpk biw, day 0): 23.9 ± 0.7 g | Tumor Volume ([2]; 1 mpk biw, day 0): 170 ± 9 mm^3 | Body Weight ([2]; 1 mpk biw, day 2): 23.5 ± 0.7 g | Tumor Volume ([2]; 1 mpk biw, day 2): 224 ± 33 mm^3 | Body Weight ([2]; 1 mpk biw, day 4): 24.0 ± 0.9 g | Tumor Volume ([2]; 1 mpk biw, day 4): 352 ± 69 mm^3 | Body Weight ([2]; 1 mpk biw, day 7): 24.4 ± 0.7 g | Tumor Volume ([2]; 1 mpk biw, day 7): 587 ± 134 mm^3 | Body Weight ([2]; 1 mpk biw, day 9): 24.6 ± 0.8 g | Tumor Volume ([2]; 1 mpk biw, day 9): 840 ± 155 mm^3 | Body Weight ([2]; 1 mpk biw, day 11): 25.2 ± 1.1 g | Tumor Volume ([2]; 1 mpk biw, day 11): 1265 ± 144 mm^3 | Body Weight ([2]; 1 mpk biw, day 14): 26.0 ± 1.0 g | Tumor Volume ([2]; 1 mpk biw, day 14): 1455 ± 130 mm^3 | Body Weight ([2]; 3 mpk biw, day 0): 23.6 ± 0.4 g | Tumor Volume ([2]; 3 mpk biw, day 0): 166 ± 13 mm^3 | Body Weight ([2]; 3 mpk biw, day 2): 23.6 ± 0.5 g | Tumor Volume ([2]; 3 mpk biw, day 2): 241 ± 20 mm^3 | Body Weight ([2]; 3 mpk biw, day 4): 24.0 ± 0.8 g | Tumor Volume ([2]; 3 mpk biw, day 4): 377 ± 38 mm^3 | Body Weight ([2]; 3 mpk biw, day 7): 24.8 ± 0.8 g | Tumor Volume ([2]; 3 mpk biw, day 7): 605 ± 84 mm^3 | Body Weight ([2]; 3 mpk biw, day 9): 24.4 ± 0.9 g | Tumor Volume ([2]; 3 mpk biw, day 9): 732 ± 95 mm^3 | Body Weight ([2]; 3 mpk biw, day 11): 25.1 ± 0.8 g | Tumor Volume ([2]; 3 mpk biw, day 11): 1095 ± 207 mm^3 | Body Weight ([2]; 3 mpk biw, day 14): 25.0 ± 0.7 g | Tumor Volume ([2]; 3 mpk biw, day 14): 1343 ± 349 mm^3 | Body Weight ([2]; 10 mpk biw, day 0): 23.3 ± 1.4 g | Tumor Volume ([2]; 10 mpk biw, day 0): 168 ± 6 mm^3 | Body Weight ([2]; 10 mpk biw, day 2): 22.5 ± 1.7 g | Tumor Volume ([2]; 10 mpk biw, day 2): 209 ± 31 mm^3 | Body Weight ([2]; 10 mpk biw, day 4): 22.4 ± 1.7 g | Tumor Volume ([2]; 10 mpk biw, day 4): 269 ± 23 mm^3 | Body Weight ([2]; 10 mpk biw, day 7): 22.6 ± 1.9 g | Tumor Volume ([2]; 10 mpk biw, day 7): 419 ± 22 mm^3 | Body Weight ([2]; 10 mpk biw, day 9): 22.4 ± 1.8 g | Tumor Volume ([2]; 10 mpk biw, day 9): 442 ± 23 mm^3 | Body Weight ([2]; 10 mpk biw, day 11): 22.3 ± 1.9 g | Tumor Volume ([2]; 10 mpk biw, day 11): 442 ± 26 mm^3 | Body Weight ([2]; 10 mpk biw, day 14): 22.7 ± 2.0 g | Tumor Volume ([2]; 10 mpk biw, day 14): 421 ± 31 mm^3 | Best response at 10 mg/kg ([2]; NCI-H1975, 10 mg/kg): CR | TGI ([2]; NCI-H1975, 1 mpk, biw, day 14): 3.0% | Tumor Volume ([2]; NCI-H1975, 1 mpk, biw, day 14): 1455 ± 130 mm^3 | TGI ([2]; NCI-H1975, 3 mpk, biw, day 14): 11.2% | Tumor Volume ([2]; NCI-H1975, 3 mpk, biw, day 14): 1343 ± 349 mm^3 | TGI ([2]; NCI-H1975, 10 mpk, biw, day 14): 80.9% | Tumor Volume ([2]; NCI-H1975, 10 mpk, biw, day 14): 421 ± 31 mm^3 | Minimally Effective Dose IV BIW ([2]; NCI-H1975, dose leading to tumor-stasis): <10 mg/kg | tumor volume after regression ([2]; after 4 weeks 10 mg/kg biw): below 50 mm3 | body weight effect ([2]; at PG-D40): marked body weight lost
